How the values were obtained:
[1] = target: Interleukin-1 receptor-associated kinase 1 (Homo sapiens) (UniProt P51617); assay: IRAK1(h) Millipore kinase panel; conditions: Compound concentration 10.0 uM
[2] = MT1 CEREP panel; conditions: Compound concentration 1.0 uM
[3] = target: Discoidin domain-containing receptor 2 (Homo sapiens) (UniProt Q16832); assay: DDR2(h) Millipore kinase panel; conditions: Compound concentration 10.0 uM
[4] = target: Nociceptin receptor (Homo sapiens) (UniProt P41146); assay: ORL1 (h) CEREP panel; conditions: Compound concentration 1.0 uM
[5] = target: Angiopoietin-1 receptor (Homo sapiens) (UniProt Q02763); assay: Tie2(h) Millipore kinase panel; conditions: Compound concentration 10.0 uM
[6] = target: Ephrin type-A receptor 1 (Homo sapiens) (UniProt P21709); assay: EphA1(h) Millipore kinase panel; conditions: Compound concentration 10.0 uM
[7] = target: D(2) dopamine receptor (Homo sapiens) (UniProt P14416); assay: D2 (h) CEREP panel; conditions: Compound concentration 1.0 uM
[8] = target: 5-hydroxytryptamine receptor 1A (Homo sapiens) (UniProt P08908); assay: 5-HT1A (h) CEREP panel; conditions: Compound concentration 1.0 uM
[9] = target: Mitogen-activated protein kinase 8 (Homo sapiens) (UniProt P45983); assay: JNK1α1(h) Millipore kinase panel; conditions: Compound concentration 10.0 uM
[10] = target: Serine/threonine-protein kinase 33 (Homo sapiens) (UniProt Q9BYT3); assay: STK33(h) Millipore kinase panel; conditions: Compound concentration 10.0 uM
[11] = target: Serine/threonine-protein kinase PLK3 (Homo sapiens) (UniProt Q9H4B4); assay: Plk3(h) Millipore kinase panel; conditions: Compound concentration 10.0 uM
[12] = target: Death-associated protein kinase 1 (Homo sapiens) (UniProt P53355); assay: DAPK1(h) Millipore kinase panel; conditions: Compound concentration 10.0 uM
Chain of Death-associated protein kinase 1 (Homo sapiens) (P53355 whole entry, looked up): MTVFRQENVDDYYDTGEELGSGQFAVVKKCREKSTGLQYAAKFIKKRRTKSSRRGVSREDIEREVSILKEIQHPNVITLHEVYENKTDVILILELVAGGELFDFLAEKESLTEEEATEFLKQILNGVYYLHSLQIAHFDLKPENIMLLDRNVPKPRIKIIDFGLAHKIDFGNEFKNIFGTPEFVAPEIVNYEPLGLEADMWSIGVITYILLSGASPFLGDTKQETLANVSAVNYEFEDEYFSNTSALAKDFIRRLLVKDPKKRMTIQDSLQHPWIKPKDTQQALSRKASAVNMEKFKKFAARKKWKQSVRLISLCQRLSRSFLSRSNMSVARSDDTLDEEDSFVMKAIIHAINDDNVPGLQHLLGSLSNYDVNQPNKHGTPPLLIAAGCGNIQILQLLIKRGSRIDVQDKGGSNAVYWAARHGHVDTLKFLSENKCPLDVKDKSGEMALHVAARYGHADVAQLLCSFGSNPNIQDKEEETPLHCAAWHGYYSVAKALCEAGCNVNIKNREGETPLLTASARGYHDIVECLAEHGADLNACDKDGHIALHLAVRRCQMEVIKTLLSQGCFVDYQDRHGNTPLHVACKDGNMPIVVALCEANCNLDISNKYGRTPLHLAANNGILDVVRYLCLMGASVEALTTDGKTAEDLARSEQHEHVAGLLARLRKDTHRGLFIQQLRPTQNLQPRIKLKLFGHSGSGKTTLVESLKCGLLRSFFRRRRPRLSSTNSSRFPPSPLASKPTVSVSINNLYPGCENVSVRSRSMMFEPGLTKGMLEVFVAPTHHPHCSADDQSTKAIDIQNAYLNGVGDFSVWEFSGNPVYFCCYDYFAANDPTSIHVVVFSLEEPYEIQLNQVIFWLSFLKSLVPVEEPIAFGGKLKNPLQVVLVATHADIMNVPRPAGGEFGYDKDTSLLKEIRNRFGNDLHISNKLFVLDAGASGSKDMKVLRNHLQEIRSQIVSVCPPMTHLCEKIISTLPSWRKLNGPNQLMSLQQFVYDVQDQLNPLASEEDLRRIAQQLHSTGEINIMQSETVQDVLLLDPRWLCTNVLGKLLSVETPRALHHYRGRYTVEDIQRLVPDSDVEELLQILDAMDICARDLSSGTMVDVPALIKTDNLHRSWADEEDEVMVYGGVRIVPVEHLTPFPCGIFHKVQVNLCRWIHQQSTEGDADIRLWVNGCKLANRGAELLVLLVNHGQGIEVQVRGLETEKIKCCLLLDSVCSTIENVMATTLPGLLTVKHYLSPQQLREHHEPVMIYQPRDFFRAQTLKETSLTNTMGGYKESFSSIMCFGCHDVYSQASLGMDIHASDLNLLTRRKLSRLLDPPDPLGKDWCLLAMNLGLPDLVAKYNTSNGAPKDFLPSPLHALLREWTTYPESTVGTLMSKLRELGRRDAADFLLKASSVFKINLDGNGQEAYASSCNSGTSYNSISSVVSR

[13] = target: Epidermal growth factor receptor (Homo sapiens) (UniProt P00533); assay: EGFR(h) Millipore kinase panel; conditions: Compound concentration 10.0 uM
[14] = target: Neurotensin receptor type 1 (Homo sapiens) (UniProt P30989); assay: NT1 (h) (NTS1) CEREP panel; conditions: Compound concentration 1.0 uM
[15] = target: Kappa-type opioid receptor (Homo sapiens) (UniProt P41145); assay: kappa (h) CEREP panel; conditions: Compound concentration 1.0 uM
Chain of Kappa-type opioid receptor (Homo sapiens) (P41145 whole entry): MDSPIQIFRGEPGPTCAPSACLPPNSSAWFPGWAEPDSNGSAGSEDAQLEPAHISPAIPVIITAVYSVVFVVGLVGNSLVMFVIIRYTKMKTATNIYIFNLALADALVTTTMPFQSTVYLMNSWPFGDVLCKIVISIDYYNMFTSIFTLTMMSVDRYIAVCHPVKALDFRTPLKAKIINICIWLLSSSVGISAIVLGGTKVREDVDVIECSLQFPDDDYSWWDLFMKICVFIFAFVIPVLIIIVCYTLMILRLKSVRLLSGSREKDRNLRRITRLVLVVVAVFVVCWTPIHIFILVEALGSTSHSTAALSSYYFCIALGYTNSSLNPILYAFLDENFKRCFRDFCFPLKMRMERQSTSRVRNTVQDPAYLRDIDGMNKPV

[16] = target: Serine/threonine-protein kinase pim-1 (Homo sapiens) (UniProt P11309); assay: Pim-1(h) Millipore kinase panel; conditions: Compound concentration 10.0 uM
[17] = target: Adrenergic receptor alpha-2 (Homo sapiens) (UniProt P08913+P18825+P18089); assay: alpha 2 (non-selective) CEREP panel; conditions: Compound concentration 1.0 uM
[18] = target: Tyrosine-protein kinase SYK (Homo sapiens) (UniProt P43405); assay: Syk(h) Millipore kinase panel; conditions: Compound concentration 10.0 uM
[19] = target: Proto-oncogene tyrosine-protein kinase Src (Homo sapiens) (UniProt P12931); assay: cSRC(h) Millipore kinase panel; conditions: Compound concentration 10.0 uM
[20] = target: Mu-type opioid receptor (Homo sapiens) (UniProt P35372); assay: mu (h) CEREP panel; conditions: Compound concentration 1.0 uM
Chain of Mu-type opioid receptor (Homo sapiens) (P35372 whole entry): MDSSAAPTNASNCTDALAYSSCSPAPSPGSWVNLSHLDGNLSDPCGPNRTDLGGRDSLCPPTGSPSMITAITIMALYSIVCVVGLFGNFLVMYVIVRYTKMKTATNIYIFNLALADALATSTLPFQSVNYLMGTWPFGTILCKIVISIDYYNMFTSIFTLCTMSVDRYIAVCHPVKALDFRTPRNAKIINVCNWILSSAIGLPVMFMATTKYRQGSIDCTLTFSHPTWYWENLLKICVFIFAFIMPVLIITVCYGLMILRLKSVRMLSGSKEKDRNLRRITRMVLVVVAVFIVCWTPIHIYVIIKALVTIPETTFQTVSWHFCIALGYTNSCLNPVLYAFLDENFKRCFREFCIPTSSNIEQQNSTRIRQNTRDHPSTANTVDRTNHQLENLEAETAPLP

[21] = target: Serine/threonine-protein kinase VRK2 (Homo sapiens) (UniProt Q86Y07); assay: VRK2(h) Millipore kinase panel; conditions: Compound concentration 10.0 uM
[22] = target: Glycogen synthase kinase-3 beta (Homo sapiens) (UniProt P49841); assay: GSK3β(h) Millipore kinase panel; conditions: Compound concentration 10.0 uM
Chain of Glycogen synthase kinase-3 beta (Homo sapiens) (P49841 whole entry, looked up): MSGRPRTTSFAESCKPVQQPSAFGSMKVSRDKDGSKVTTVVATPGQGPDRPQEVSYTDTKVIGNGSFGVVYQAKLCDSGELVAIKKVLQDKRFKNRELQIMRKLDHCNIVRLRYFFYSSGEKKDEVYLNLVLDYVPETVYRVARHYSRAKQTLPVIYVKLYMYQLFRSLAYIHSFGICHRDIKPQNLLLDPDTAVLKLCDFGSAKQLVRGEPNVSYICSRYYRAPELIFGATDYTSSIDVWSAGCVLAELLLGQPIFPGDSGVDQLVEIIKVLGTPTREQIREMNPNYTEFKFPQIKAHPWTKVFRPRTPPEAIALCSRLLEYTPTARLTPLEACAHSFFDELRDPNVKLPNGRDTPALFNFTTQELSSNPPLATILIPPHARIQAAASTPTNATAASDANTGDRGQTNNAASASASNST

[23] = target: Histamine H1 receptor (Homo sapiens) (UniProt P35367); assay: H1 (h) CEREP panel; conditions: Compound concentration 1.0 uM
[24] = target: Delta-type opioid receptor (Homo sapiens) (UniProt P41143); assay: delta (h) CEREP panel; conditions: Compound concentration 1.0 uM
Chain of Delta-type opioid receptor (Homo sapiens) (P41143 whole entry): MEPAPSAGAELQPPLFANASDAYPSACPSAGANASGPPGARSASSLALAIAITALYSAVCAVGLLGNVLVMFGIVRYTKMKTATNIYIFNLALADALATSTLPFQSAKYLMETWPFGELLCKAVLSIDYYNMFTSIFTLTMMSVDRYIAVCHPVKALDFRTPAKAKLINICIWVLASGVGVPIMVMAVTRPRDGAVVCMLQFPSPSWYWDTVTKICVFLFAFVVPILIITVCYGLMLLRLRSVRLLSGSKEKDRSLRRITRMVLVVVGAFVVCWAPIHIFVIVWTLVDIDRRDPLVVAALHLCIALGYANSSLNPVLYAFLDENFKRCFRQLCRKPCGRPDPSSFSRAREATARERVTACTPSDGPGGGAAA

[25] = target: 5-hydroxytryptamine receptor 2A (Homo sapiens) (UniProt P28223); assay: 5-HT2A (h) CEREP panel; conditions: Compound concentration 1.0 uM
[26] = target: Galanin receptor type 2 (Homo sapiens) (UniProt O43603); assay: GAL2 (h) CEREP panel; conditions: Compound concentration 1.0 uM
Chain of Galanin receptor type 2 (Homo sapiens) (O43603 whole entry): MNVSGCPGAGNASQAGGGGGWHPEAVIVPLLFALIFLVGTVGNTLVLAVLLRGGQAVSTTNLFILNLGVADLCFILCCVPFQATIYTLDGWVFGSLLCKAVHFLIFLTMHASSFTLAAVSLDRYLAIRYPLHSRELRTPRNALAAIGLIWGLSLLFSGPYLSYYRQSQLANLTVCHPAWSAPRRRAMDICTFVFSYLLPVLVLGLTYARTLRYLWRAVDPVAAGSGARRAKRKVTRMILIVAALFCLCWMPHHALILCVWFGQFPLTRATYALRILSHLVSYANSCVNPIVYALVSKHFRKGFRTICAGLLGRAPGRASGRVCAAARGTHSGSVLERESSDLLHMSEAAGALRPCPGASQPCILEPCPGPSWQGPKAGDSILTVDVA

[27] = target: Serine/threonine-protein kinase D2 (Homo sapiens) (UniProt Q9BZL6); assay: PKD2(h) Millipore kinase panel; conditions: Compound concentration 10.0 uM
[28] = target: Muscarinic acetylcholine receptor M3 (Homo sapiens) (UniProt P20309); assay: M3 (h) CEREP panel; conditions: Compound concentration 1.0 uM
[29] = target: Serine/threonine-protein kinase Nek2 (Homo sapiens) (UniProt P51955); assay: NEK2(h) Millipore kinase panel; conditions: Compound concentration 10.0 uM
[30] = target: Vasopressin V1a receptor (Homo sapiens) (UniProt P37288); assay: V1A (h) CEREP panel; conditions: Compound concentration 1.0 uM
[31] = target: Protein kinase C alpha type (Homo sapiens) (UniProt P17252); assay: PKCα(h) Millipore kinase panel; conditions: Compound concentration 10.0 uM
[32] = target: Calcium/calmodulin-dependent protein kinase type 1 (Homo sapiens) (UniProt Q14012); assay: CaMKI(h) Millipore kinase panel; conditions: Compound concentration 10.0 uM
[33] = target: Dual specificity protein kinase CLK3 (Homo sapiens) (UniProt P49761); assay: CLK3(h) Millipore kinase panel; conditions: Compound concentration 10.0 uM
[34] = target: Serine/threonine-protein kinase Chk2 (Homo sapiens) (UniProt O96017); assay: CHK2(h) Millipore kinase panel; conditions: Compound concentration 10.0 uM
[35] = target: Tyrosine-protein kinase BTK (Homo sapiens) (UniProt Q06187); assay: BTK(h) Millipore kinase panel; conditions: Compound concentration 10.0 uM
[36] = target: Interleukin-1 receptor-associated kinase 4 (Homo sapiens) (UniProt Q9NWZ3); assay: IRAK4(h) Millipore kinase panel; conditions: Compound concentration 10.0 uM
[37] = target: RAF proto-oncogene serine/threonine-protein kinase (Homo sapiens) (UniProt P04049); assay: c-RAF(h) Millipore kinase panel; conditions: Compound concentration 10.0 uM
[38] = target: cAMP-dependent protein kinase catalytic subunit alpha (Homo sapiens) (UniProt P17612); assay: PKA(h) Millipore kinase panel; conditions: Compound concentration 10.0 uM
[39] = target: cGMP-dependent protein kinase 1 (Homo sapiens) (UniProt Q13976); assay: PKG1α(h) Millipore kinase panel; conditions: Compound concentration 10.0 uM
[40] = species: Homo sapiens; assay: CK2(h) Millipore kinase panel; conditions: Compound concentration 10.0 uM
[41] = Na+ channel (site 2) CEREP panel; conditions: Compound concentration 1.0 uM
[42] = target: Muscle, skeletal receptor tyrosine-protein kinase (Homo sapiens) (UniProt O15146); assay: MuSK(h) Millipore kinase panel; conditions: Compound concentration 10.0 uM
Chain of Muscle, skeletal receptor tyrosine-protein kinase (Homo sapiens) (O15146 whole entry): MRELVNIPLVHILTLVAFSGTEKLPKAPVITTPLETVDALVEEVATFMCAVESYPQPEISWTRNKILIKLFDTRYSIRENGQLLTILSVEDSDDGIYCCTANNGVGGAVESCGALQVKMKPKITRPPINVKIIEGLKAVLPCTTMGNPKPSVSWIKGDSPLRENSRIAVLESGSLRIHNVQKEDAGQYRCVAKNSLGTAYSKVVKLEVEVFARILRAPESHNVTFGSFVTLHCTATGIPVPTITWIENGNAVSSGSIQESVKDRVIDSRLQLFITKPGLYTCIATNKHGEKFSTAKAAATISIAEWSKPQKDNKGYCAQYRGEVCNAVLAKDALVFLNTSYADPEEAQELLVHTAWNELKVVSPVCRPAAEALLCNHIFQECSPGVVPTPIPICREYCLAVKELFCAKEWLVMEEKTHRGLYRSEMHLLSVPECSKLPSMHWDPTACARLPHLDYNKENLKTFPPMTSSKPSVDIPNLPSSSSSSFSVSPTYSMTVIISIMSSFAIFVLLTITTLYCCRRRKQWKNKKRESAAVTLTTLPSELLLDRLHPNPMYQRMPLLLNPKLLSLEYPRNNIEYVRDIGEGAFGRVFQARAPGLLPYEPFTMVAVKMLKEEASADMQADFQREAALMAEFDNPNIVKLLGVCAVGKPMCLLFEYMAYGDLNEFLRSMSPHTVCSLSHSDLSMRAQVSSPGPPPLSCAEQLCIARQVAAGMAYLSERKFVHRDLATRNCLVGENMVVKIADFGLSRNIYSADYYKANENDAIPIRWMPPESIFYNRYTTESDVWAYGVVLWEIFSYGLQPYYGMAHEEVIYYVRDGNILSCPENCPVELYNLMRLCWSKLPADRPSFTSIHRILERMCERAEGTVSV

[43] = target: RAC-alpha serine/threonine-protein kinase (Homo sapiens) (UniProt P31749); assay: PKBα(h) Millipore kinase panel; conditions: Compound concentration 10.0 uM
[44] = target: Serine/threonine-protein kinase DCLK2 (Homo sapiens) (UniProt Q8N568); assay: DCAMKL2(h) Millipore kinase panel; conditions: Compound concentration 10.0 uM
[45] = target: Sodium-dependent noradrenaline transporter (Homo sapiens) (UniProt P23975); assay: NE transporter (h) CEREP panel; conditions: Compound concentration 1.0 uM
[46] = target: Serine/threonine-protein kinase Sgk1 (Homo sapiens) (UniProt O00141); assay: SGK(h) Millipore kinase panel; conditions: Compound concentration 10.0 uM
[47] = target: Histamine H2 receptor (Homo sapiens) (UniProt P25021); assay: H2 (h) CEREP panel; conditions: Compound concentration 1.0 uM
[48] = target: 5-hydroxytryptamine receptor 3A (Homo sapiens) (UniProt P46098); assay: 5-HT3 (h) CEREP panel; conditions: Compound concentration 1.0 uM
[49] = Cl- channel CEREP panel; conditions: Compound concentration 1.0 uM
[50] = target: Adenosine receptor A3 (Homo sapiens) (UniProt P0DMS8); assay: A3 (h) CEREP panel; conditions: Compound concentration 1.0 uM

Measured: inhibition

CC(C)c1cc(N2CC[C@@H](N)C2)nc(N)n1
inactive: [1] -6% | [2] < 10% | [3] -8% | [4] < 10% | [5] 12% | [6] -6% | [7] < 10% | [8] < 10% | [9] 10% | [10] -4% | [11] -5% | [12] -3% | [13] 2% | [14] < 10% | [15] < 10% | [16] 3% | [17] 18% | [18] 3% | [19] -5% | [20] < 10% | [21] -2% | [22] 0% | [23] < 10% | [24] < 10% | [25] < 10% | [26] < 10% | [27] 8% | [28] 64% | [29] -10% | [30] < 10% | [31] 23% | [32] 3% | [33] 9% | [34] 4% | [35] -9% | [36] -5% | [37] -5% | [38] -2% | [39] -2% | [40] 4% | [41] < 10% | [42] -9% | [43] -7% | [44] 1% | [45] 10% | [46] 7% | [47] < 10% | [48] < 10% | [49] < 10% | [50] < 10%
